Laboratory results from US20140213648A1, “METHODS OF INCREASING EPA BLOOD LEVELS” (priority 2012, published 2014).

Test: 12-week placebo-controlled study: plasma fatty acid concentrations, ratios and proportions (GC/FID)
Format: in vivo, human
Conditions: for AA plasma concentration, change from baseline (LS mean (SE)) / AA plasma concentration, end-of-treatment (mean) / DHA plasma concentration, change from baseline (LS mean (SE)) / DHA plasma concentration, end-of-treatment (mean) / Linoleic plasma concentration, change from baseline (LS mean (SE)) / Linoleic plasma concentration, end-of-treatment (mean) / Oleic plasma concentration, change from baseline (LS mean (SE)) / Oleic plasma concentration, end-of-treatment (mean) / Palmitic plasma concentration, change from baseline (LS mean (SE)) / Palmitic plasma concentration, end-of-treatment (mean) / Proportion of monounsaturated fatty acids to total fatty acids in plasma, change from baseline (LS mean (SE)) / Proportion of monounsaturated fatty acids to total fatty acids in plasma, end-of-treatment (mean (SD)) / Proportion of saturated fatty acids to total fatty acids in plasma, change from baseline (LS mean (SE)) / Proportion of saturated fatty acids to total fatty acids in plasma, end-of-treatment (mean (SD)) / Proportion of total omega-3 fatty acids to total fatty acids in plasma, change from baseline (LS mean (SE)) / Proportion of total omega-3 fatty acids to total fatty acids in plasma, end-of-treatment (mean (SD)) / Proportion of total omega-6 fatty acids to total fatty acids in plasma, change from baseline (LS mean (SE)) / Proportion of total omega-6 fatty acids to total fatty acids in plasma, end-of-treatment (mean (SD)) / Ratio of AA/EPA in plasma, change from baseline (LS mean (SE)) / Ratio of AA/EPA in plasma, end-of-treatment (mean) / Ratio of n-3/n-6 FA in plasma, change from baseline (LS mean (SE)) / Ratio of n-3/n-6 FA in plasma, end-of-treatment (mean) / Stearic plasma concentration, change from baseline (LS mean (SE)) / Stearic plasma concentration, end-of-treatment (mean): week 12
Description: A multi-center, placebo-controlled randomized, double-blind, 12-week study with an open-label extension is performed to evaluate the efficacy and safety of AMR101 in patients with fasting triglyceride levels ≧500 mg/dL. The primary objective of the study is to determine the efficacy of AMR101 2 g daily and 4 g daily, compared to placebo, in lowering fasting TG levels in patients with fasting TG levels ≧500 mg/dL and ≦1500 mg/dL (≧5.65 mmol/L and ≦16.94 mmol/L).
Eligible patients will be randomly assigned at Visit 4 (Week 0) to receive orally AMR101 2 g daily, AMR101 4 g daily, or placebo for the 12-week double-blind treatment period. AMR101 is provided in 1 g liquid-filled, oblong, gelatin capsules. The matching placebo capsule is filled with light liquid paraffin and contains 0 g of AMR101. During the double-blind treatment period, patients will take 2 capsules (AMR101 or matching placebo) in the morning and 2 in the evening for a total of 4 capsules per day. Patients in the AMR101 2 g/day treatment group will receive 1 AMR101 1 g capsule and 1 matching placebo capsule in the morning and in the evening. Patients in the AMR101 4 g/day treatment group will receive 2 AMR101 1 g capsules in the morning and evening.
Lipids were extracted from plasma and RBC suspensions and converted into fatty acid methyl esters for analysis using a standard validated gas chromatography/flame ionization detection method. Fatty acid parameters were compared between EPA treatment groups and placebo using an ANCOVA model with treatment, gender, type of statin therapy, and presence of diabetes as factors, and the baseline parameter value as a covariate. LSMs, SEs, and 2-tailed 95% confidence intervals for each treatment group and for each comparison were determined.

[1] = 2 g/day vs placebo, week 12, P <0.0001
[2] = 4 g/day vs placebo, week 12, P <0.0001

CC/C=C\C/C=C\C/C=C\C/C=C\C/C=C\CCCC(=O)OCC [IPE, Icosapent ethyl]
Dose dependence of EPA concentration in plasma (in words) (2 g/day or 4 g/day, 12 weeks): significantly increased EPA concentrations in a linear, dose-dependent fashion | Proportion of monounsaturated fatty acids to total fatty acids in plasma, mean placebo-adjusted percent change from baseline (2 g/day vs placebo, week 12, P 0.0009): −7.4% | Palmitic plasma concentration, mean placebo-adjusted percent change from baseline (2 g/day vs placebo, week 12, P 0.0011): −23.9% | Oleic plasma concentration, mean placebo-adjusted percent change from baseline (2 g/day vs placebo, week 12, P 0.0023): −23.8% | Stearic plasma concentration, mean placebo-adjusted percent change from baseline (2 g/day vs placebo, week 12, P 0.0040): −20.7% | Linoleic plasma concentration, mean placebo-adjusted percent change from baseline (2 g/day vs placebo, week 12, P 0.0136): −15.2% | Proportion of total omega-6 fatty acids to total fatty acids in plasma, mean placebo-adjusted percent change from baseline (2 g/day vs placebo, week 12, P 0.3044): 3.2% | DHA plasma concentration, mean placebo-adjusted percent change from baseline (2 g/day vs placebo, week 12, P 0.7217): −2.3% | Proportion of saturated fatty acids to total fatty acids in plasma, mean placebo-adjusted percent change from baseline (2 g/day vs placebo, week 12, P 0.8076): −0.4% | AA plasma concentration, mean placebo-adjusted percent change from baseline [1]: −16.4% | Proportion of total omega-3 fatty acids to total fatty acids in plasma, mean placebo-adjusted percent change from baseline [1]: 68.4% | Ratio of AA/EPA in plasma, mean placebo-adjusted percent change from baseline [1]: −88.4% | Ratio of n-3/n-6 FA in plasma, mean placebo-adjusted percent change from baseline [1]: 76.8% | AA plasma concentration, change from baseline (LS mean (SE)) (2 g/day): −36.7 (10.6) | AA plasma concentration, end-of-treatment (mean) (2 g/day): 327.3 | DHA plasma concentration, change from baseline (LS mean (SE)) (2 g/day): −13.1 (6.2) | DHA plasma concentration, end-of-treatment (mean) (2 g/day): 104.8 | Linoleic plasma concentration, change from baseline (LS mean (SE)) (2 g/day): −227 (121.4) | Linoleic plasma concentration, end-of-treatment (mean) (2 g/day): 1981 | Oleic plasma concentration, change from baseline (LS mean (SE)) (2 g/day): −414 (142.9) | Oleic plasma concentration, end-of-treatment (mean) (2 g/day): 2018 | Palmitic plasma concentration, change from baseline (LS mean (SE)) (2 g/day): −353 (126.9) | Palmitic plasma concentration, end-of-treatment (mean) (2 g/day): 2015 | Proportion of monounsaturated fatty acids to total fatty acids in plasma, change from baseline (LS mean (SE)) (2 g/day): −1.4 (0.5) mol % | Proportion of monounsaturated fatty acids to total fatty acids in plasma, end-of-treatment (mean (SD)) (2 g/day): 29.5 (4.9) mol % | Proportion of saturated fatty acids to total fatty acids in plasma, change from baseline (LS mean (SE)) (2 g/day): −0.3 (0.5) mol % | Proportion of saturated fatty acids to total fatty acids in plasma, end-of-treatment (mean (SD)) (2 g/day): 35.8 (3.7) mol % | Proportion of total omega-3 fatty acids to total fatty acids in plasma, change from baseline (LS mean (SE)) (2 g/day): 2.0 (0.2) mol % | Proportion of total omega-3 fatty acids to total fatty acids in plasma, end-of-treatment (mean (SD)) (2 g/day): 4.8 (1.3) mol % | Proportion of total omega-6 fatty acids to total fatty acids in plasma, change from baseline (LS mean (SE)) (2 g/day): −0.2 (0.7) mol % | Proportion of total omega-6 fatty acids to total fatty acids in plasma, end-of-treatment (mean (SD)) (2 g/day): 29.8 (6.8) mol % | Ratio of AA/EPA in plasma, change from baseline (LS mean (SE)) (2 g/day): −9.6 (0.5) | Ratio of AA/EPA in plasma, end-of-treatment (mean) (2 g/day): 2.3 | Ratio of n-3/n-6 FA in plasma, change from baseline (LS mean (SE)) (2 g/day): 0.07 (0.009) | Ratio of n-3/n-6 FA in plasma, end-of-treatment (mean) (2 g/day): 0.17 | Stearic plasma concentration, change from baseline (LS mean (SE)) (2 g/day): −57.8 (33.3) | Stearic plasma concentration, end-of-treatment (mean) (2 g/day): 541.5 | Oleic plasma concentration, mean placebo-adjusted percent change from baseline (4 g/day vs placebo, week 12, P 0.0001): −31.9% | Stearic plasma concentration, mean placebo-adjusted percent change from baseline (4 g/day vs placebo, week 12, P 0.0002): −28.4% | Linoleic plasma concentration, mean placebo-adjusted percent change from baseline (4 g/day vs placebo, week 12, P 0.0003): −23.7% | Proportion of monounsaturated fatty acids to total fatty acids in plasma, mean placebo-adjusted percent change from baseline (4 g/day vs placebo, week 12, P 0.0008): −7.7% | Proportion of saturated fatty acids to total fatty acids in plasma, mean placebo-adjusted percent change from baseline (4 g/day vs placebo, week 12, P 0.1049): −2.8% | DHA plasma concentration, mean placebo-adjusted percent change from baseline (4 g/day vs placebo, week 12, P 0.7115): 2.4% | Proportion of total omega-6 fatty acids to total fatty acids in plasma, mean placebo-adjusted percent change from baseline (4 g/day vs placebo, week 12, P 0.8846): 0.5% | AA plasma concentration, mean placebo-adjusted percent change from baseline [2]: −26.8% | Palmitic plasma concentration, mean placebo-adjusted percent change from baseline [2]: −34.4% | Proportion of total omega-3 fatty acids to total fatty acids in plasma, mean placebo-adjusted percent change from baseline [2]: 132.7% | Ratio of AA/EPA in plasma, mean placebo-adjusted percent change from baseline [2]: −99.4% | Ratio of n-3/n-6 FA in plasma, mean placebo-adjusted percent change from baseline [2]: 145.8% | AA plasma concentration, change from baseline (LS mean (SE)) (4 g/day): −76.2 (11.3) | AA plasma concentration, end-of-treatment (mean) (4 g/day): 280.3 | DHA plasma concentration, change from baseline (LS mean (SE)) (4 g/day): −4.5 (6.6) | DHA plasma concentration, end-of-treatment (mean) (4 g/day): 118.1 | Linoleic plasma concentration, change from baseline (LS mean (SE)) (4 g/day): −309 (128.1) | Linoleic plasma concentration, end-of-treatment (mean) (4 g/day): 1882 | Oleic plasma concentration, change from baseline (LS mean (SE)) (4 g/day): −546 (154.0) | Oleic plasma concentration, end-of-treatment (mean) (4 g/day): 1885 | Palmitic plasma concentration, change from baseline (LS mean (SE)) (4 g/day): −560 (138.1) | Palmitic plasma concentration, end-of-treatment (mean) (4 g/day): 1789 | Proportion of monounsaturated fatty acids to total fatty acids in plasma, change from baseline (LS mean (SE)) (4 g/day): −1.7 (0.5) mol % | Proportion of monounsaturated fatty acids to total fatty acids in plasma, end-of-treatment (mean (SD)) (4 g/day): 28.7 (4.0) mol % | Proportion of saturated fatty acids to total fatty acids in plasma, change from baseline (LS mean (SE)) (4 g/day): −1.2 (0.5) mol % | Proportion of saturated fatty acids to total fatty acids in plasma, end-of-treatment (mean (SD)) (4 g/day): 34.8 (3.5) mol % | Proportion of total omega-3 fatty acids to total fatty acids in plasma, change from baseline (LS mean (SE)) (4 g/day): 3.8 (0.2) mol % | Proportion of total omega-3 fatty acids to total fatty acids in plasma, end-of-treatment (mean (SD)) (4 g/day): 6.7 (1.9) mol % | Proportion of total omega-6 fatty acids to total fatty acids in plasma, change from baseline (LS mean (SE)) (4 g/day): −0.9 (0.7) mol % | Proportion of total omega-6 fatty acids to total fatty acids in plasma, end-of-treatment (mean (SD)) (4 g/day): 29.8 (6.2) mol % | Ratio of AA/EPA in plasma, change from baseline (LS mean (SE)) (4 g/day): −10.8 (0.5) | Ratio of AA/EPA in plasma, end-of-treatment (mean) (4 g/day): 1.2 | Ratio of n-3/n-6 FA in plasma, change from baseline (LS mean (SE)) (4 g/day): 0.4 (0.009) | Ratio of n-3/n-6 FA in plasma, end-of-treatment (mean) (4 g/day): 0.24 | Stearic plasma concentration, change from baseline (LS mean (SE)) (4 g/day): −101 (35.4) | Stearic plasma concentration, end-of-treatment (mean) (4 g/day): 500.3
